Data taken from patent US20250206732A1, “COMPOUNDS AND METHODS FOR THE TARGETED DEGRADATION OF KRAS” (Arvinas Operations, Inc., priority 2022, published 2025).

Target: T1, AsPC-1 HiBiT-KRASG12D (Homo sapiens, UniProt P01116, G12D)
T1 construct: insert the HiBiT tag onto the N-terminus of one or more of the endogenous KRAS alleles; endogenous in cells; host or cells: AsPC-1 (ATCC CRL-1682), CRISPR-Cas9 knock-in clone, one tagged allele
Test: HiBiT degradation assay (G12D), AsPC-1 HiBiT-KRASG12D cells
Type: cell-based
Conditions: 24 hours treatment; for Dmax: ASPC1, AsPC-1 HiBiT-KRASG12D cells, maximum degradation observed; for DC50: AsPC-1 HiBiT-KRASG12D cells, HiBiT luminescence
How it was run: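 Steps: treat HiBiT-KRASG12D AsPC-1 cells with compound for 24 hours; add alamar blue to 1× and incubate 4 hours to assess viability; wash with PBS; add HiBiT lytic detection reagent, incubate 45 minutes at room temperature; read luminescence. Viability fluorescence is normalized to DMSO wells.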

T1 sequence (P01116 1-188 isoform P01116-2 G12D): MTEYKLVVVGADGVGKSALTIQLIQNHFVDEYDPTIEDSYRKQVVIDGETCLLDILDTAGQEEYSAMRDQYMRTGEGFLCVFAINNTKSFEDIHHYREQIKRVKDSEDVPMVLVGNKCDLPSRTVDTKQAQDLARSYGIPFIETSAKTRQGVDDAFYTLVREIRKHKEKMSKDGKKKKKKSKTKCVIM

Structure (SMILES)	Dmax [%]	DC50 [nM]
CCc1cccc2cc(O)cc(-c3ncc4c(N5CC6CCC(C5)N6)nc(OCCN5CCC[C@H](CN6CCN(c7cc([C@H](C(=O)N8C[C@H](O)C[C@H]8C(=O)N[C@@H](C)c8ccc(-c9scnc9C)cc8)C(C)C)on7)CC6)C5)nc4c3F)c12 [Compound 243, (2S,4R)-1-[(2R)-2-[3-[4-[(3R)-1-[2-[[4-(3,8-diazabicyclo[3.2.1]octan-3-yl)-7-(8-ethyl-3-hydroxy-1-naphthyl)-8-fluoro-pyrido[4,3-d]pyrimidin-2-yl]oxyethyl]-3-piperidyl]methyl]piperazin-1-yl]isoxazol-5-yl]-3-methyl-butanoyl]-4-hydroxy-N-[(1S)-1-[4-(4-methylthiazol-5-yl)phenyl]ethyl]pyrrolidine-2-carboxamide]	80 to 100	< 600
CCc1cccc2cc(O)cc(-c3ncc4c(N5CC6CCC(C5)N6)nc(OC[C@]56CCCN5[C@H](CN5CCC(COc7cc([C@H](C(=O)N8C[C@H](O)C[C@H]8C(=O)N[C@@H](C)c8ccc(-c9scnc9C)cc8)C(C)C)on7)CC5)CC6)nc4c3F)c12 [Compound 111, (2S,4R)-1-[(2R)-2-{3-[(1-{[(3S,7aR)-7a-{[(4-{3,8-diazabicyclo[3.2.1]octan-3-yl}-7-(8-ethyl-3-hydroxynaphthalen-1-yl)-8-fluoropyrido[4,3-d]pyrimidin-2-yl)oxy]methyl}-hexahydro-1H-pyrrolizin-3-yl]methyl}piperidin-4-yl)methoxy]-1,2-oxazol-5-yl}-3-methylbutanoyl]-4-hydroxy-N-[(1S)-1-[4-(4-methyl-1,3-thiazol-5-yl)phenyl]ethyl]pyrrolidine-2-carboxamide]	80 to 100	< 600
CCc1cccc2cc(O)cc(-c3ncc4c(N5CC6CCC(C5)N6)nc(OC[C@]56CCCN5[C@H](COC(=O)N5C[C@@H](C)N(c7cc([C@@H](C(=O)N8C[C@H](O)C[C@H]8C(=O)N[C@@H](C)c8ccc(-c9scnc9C)cc8)C(C)C)on7)C[C@@H]5C)CC6)nc4c3F)c12 [Compound 297, [(3S,8R)-8-[[4-(3,8-diazabicyclo[3.2.1]octan-3-yl)-7-(8-ethyl-3-hydroxy-1-naphthyl)-8-fluoro-pyrido[4,3-d]pyrimidin-2-yl]oxymethyl]-1,2,3,5,6,7-hexahydropyrrolizin-3-yl]methyl (2S,5R)-4-[5-[(1S)-1-[(2S,4R)-4-hydroxy-2-[[(1S)-1-[4-(4-methylthiazol-5-yl)phenyl]ethyl]carbamoyl]pyrrolidine-1-carbonyl]-2-methyl-propyl]isoxazol-3-yl]-2,5-dimethyl-piperazine-1-carboxylate]	< 20	< 600
CCc1cccc2cc(O)cc(-c3ncc4c(N5CC6CCC(C5)N6)nc(OCCN5CCC(COc6cc([C@H](C(=O)N7C[C@H](O)C[C@H]7C(=O)N[C@@H](C)c7ccc(-c8ccnn8C)cc7)C(C)C)on6)CC5)nc4c3F)c12 (relative stereo) [Compound 143, (2S,4R)-1-[(2R*)-2-{3-[(1-{2-[(4-{3,8-diazabicyclo[3.2.1]octan-3-yl}-7-(8-ethyl-3-hydroxynaphthalen-1-yl)-8-fluoropyrido[4,3-d]pyrimidin-2-yl)oxy]ethyl}piperidin-4-yl)methoxy]-1,2-oxazol-5-yl}-3-methylbutanoyl]-4-hydroxy-N-[(1S)-1-[4-(1-methyl-1H-pyrazol-5-yl)phenyl]ethyl]pyrrolidine-2-carboxamide]	80 to 100	< 600
Cc1ncsc1-c1ccc([C@H](C)NC(=O)[C@@H]2C[C@@H](O)CN2C(=O)[C@@H](c2cc(OC3CN(C(=O)OC[C@@H]4CC[C@@H](COc5nc(N6CC7CCC(C6)N7)c6cnc(-c7cc(O)cc(Cl)c7C7CC7)c(F)c6n5)N4C)C3)no2)C(C)C)cc1 [Compound 285]	80 to 100	< 600
CCc1cccc2cc(O)cc(-c3ncc4c(N5CC6CCC(C5)N6)nc(OCCN5C[C@@H]6CN(c7cc([C@@H](C(=O)N8C[C@H](O)C[C@H]8C(=O)N[C@@H](C)c8ccc(-c9scnc9C)cc8)C(C)C)on7)C[C@H]6C5)nc4c3F)c12 (relative stereo) [Compound 78, (2S,4R)-1-[(2R*)-2-{3-[(3aR,6aR)-5-{2-[(4-{3,8-diazabicyclo[3.2.1]octan-3-yl}-7-(8-ethyl-3-hydroxynaphthalen-1-yl)-8-fluoropyrido[4,3-d]pyrimidin-2-yl)oxy]ethyl}-octahydropyrrolo[3,4-c]pyrrol-2-yl]-1,2-oxazol-5-yl}-3-methylbutanoyl]-4-hydroxy-N-[(1S)-1-[4-(4-methyl-1,3-thiazol-5-yl)phenyl]ethyl]pyrrolidine-2-carboxamide]	20 to 60	1000 to 3000
CCc1cccc2cc(O)cc(-c3ncc4c(N5CC6CCC(C5)N6)nc(OCCN5CCC6(CC5)CC(Oc5cc([C@@H](C(=O)N7C[C@H](O)C[C@H]7C(=O)N[C@@H](C)c7ccc(-c8scnc8C)cc7)C(C)C)on5)C6)nc4c3F)c12 [Compound 232]	20 to 60	1000 to 3000
CCc1cccc2cccc(-c3ncc4c(N5CC6CCC(C5)N6)nc(OC[C@@H]5CC[C@@H](COC(=O)N6CC(Oc7cc([C@H](C(=O)N8C[C@H](O)C[C@H]8C(=O)N[C@@H](C)c8ccc(-c9scnc9C)cc8)C(C)C)on7)C6)N5C)nc4c3F)c12 [Compound 223, [(2S,5S)-5-{[(4-{3,8-diazabicyclo[3.2.1]octan-3-yl}-7-(8-ethylnaphthalen-1-yl)-8-fluoropyrido[4,3-d]pyrimidin-2-yl)oxy]methyl}-1-methylpyrrolidin-2-yl]methyl 3-({5-[(2R)-1-[(2S,4R)-4-hydroxy-2-{[(1S)-1-[4-(4-methyl-1,3-thiazol-5-yl)phenyl]ethyl]carbamoyl}pyrrolidin-1-yl]-3-methyl-1-oxobutan-2-yl]-1,2-oxazol-3-yl}oxy)azetidine-1-carboxylate]	80 to 100	< 600
CCc1cccc2cc(O)cc(-c3ncc4c(N5CC6CCC(C5)N6)nc(OCCN5CC(CC6CCN(c7cc([C@@H](C(=O)N8C[C@H](O)C[C@H]8C(=O)N[C@@H](C)c8ccc(-c9scnc9C)cc8)C(C)C)on7)CC6)C5)nc4c3F)c12 [Compound 234, (2S,4R)-1-[(2S)-2-(3-{4-[(1-{2-[(4-{3,8-diazabicyclo[3.2.1]octan-3-yl}-7-(8-ethyl-3-hydroxynaphthalen-1-yl)-8-fluoropyrido[4,3-d]pyrimidin-2-yl)oxy]ethyl}azetidin-3-yl)methyl]piperidin-1-yl}-1,2-oxazol-5-yl)-3-methylbutanoyl]-4-hydroxy-N-[(1S)-1-[4-(4-methyl-1,3-thiazol-5-yl)phenyl]ethyl] pyrrolidine-2-carboxamide]	20 to 60	1000 to 3000
CCc1cccc2cc(O)cc(-c3ncc4c(N5CC6CCC(C5)N6)nc(OC[C@@]56CCCN5[C@H](CN5CCC7(CC5)CN(c5cc([C@H](C(=O)N8C[C@H](O)C[C@H]8C(=O)N[C@@H](C)c8ccc(-c9scnc9C)cc8)C(C)C)on5)C7)CC6)nc4c3F)c12 [Compound 88, (2S,4R)-1-[(2R)-2-[3-(7-{[(3S,7aS)-7a-{[(4-{3,8-diazabicyclo[3.2.1]octan-3-yl}-7-(8-ethyl-3-hydroxynaphthalen-1-yl)-8-fluoropyrido[4,3-d]pyrimidin-2-yl)oxy]methyl}-hexahydro-1H-pyrrolizin-3-yl]methyl}-2,7-diazaspiro[3.5]nonan-2-yl)-1,2-oxazol-5-yl]-3-methylbutanoyl]-4-hydroxy-N-[(1S)-1-[4-(4-methyl-1,3-thiazol-5-yl)phenyl]ethyl]pyrrolidine-2-carboxamide]	80 to 100	< 600
